ChEMBL document CHEMBL3120136 (J Med Chem, 2014)

How the values were obtained:
Hepatitis C virus = assay: Antiviral activity against Hepatitis C virus infected in human HuH7 cells assessed as inhibition of HCV subgenomic replicon replication after 72 hrs by ELISA; format: functional, organism-based, Hepacivirus hominis, Huh-7
[1] = Inhibition of Hepatitis C virus full-length NS3/4A protease assessed as quenched-fluorogenic RET-S1 substrate cleavage incubated for 10 mins prior to substrate addition by FRET analysis; parameters: species or system Hepacivirus hominis
[2] = Hepatitis C virus, Huh-7, 72 h, read-out: EC50

EC50 (Hepatitis C virus; [2]) [nM]	IC50 [1] [nM]	EC50 (Hepatitis C virus; huh-7)	Compound
730	21	–	CC(C)(C)OC(=O)N[C@H]1CCCCC/C=C\[C@@H]2C[C@@]2(C(=O)NS(=O)(=O)C2CC2)NC(=O)[C@@H]2C[C@@H](Nc3nc4ccccc4o3)CN2C1=O
155	0.8	–	CC(C)(C)OC(=O)N[C@H]1CCCOC/C=C\[C@@H]2C[C@@]2(C(=O)NS(=O)(=O)C2CC2)NC(=O)[C@@H]2C[C@@H](OC(=O)N3Cc4cccc(F)c4C3)CN2C1=O
5.1	0.7	–	CC(C)(C)OC(=O)N[C@H]1CCCCC/C=C\[C@@H]2C[C@@]2(C(=O)NS(=O)(=O)C2CC2)NC(=O)[C@@H]2C[C@@H](OC(=O)N3Cc4c(F)ccc(F)c4C3)CN2C1=O
1550	11	–	CC(C)(C)OC(=O)N[C@H]1CCCCC/C=C\[C@@H]2C[C@@]2(C(=O)O)NC(=O)[C@@H]2C[C@@H](OC(=O)N3Cc4ccccc4C3)CN2C1=O
112	2.5	–	CC(C)(C)OC(=O)N[C@H]1CCCCC/C=C\[C@@H]2C[C@@]2(C(=O)NS(=O)(=O)C2CC2)NC(=O)[C@@H]2C[C@@H](OC(=O)N3Cc4ccc(C#N)cc4C3)CN2C1=O
150	3	–	N[C@H]1CCCCC/C=C\[C@@H]2C[C@@]2(C(=O)NS(=O)(=O)C2CC2)NC(=O)[C@@H]2C[C@@H](OC(=O)N3Cc4cccc(Cl)c4C3)CN2C1=O
97	7.9	–	CC(C)(C)OC(=O)N[C@H]1CCCCC/C=C\[C@@H]2C[C@@]2(C(=O)NS(=O)(=O)Nc2ccc(Cl)cc2)NC(=O)[C@@H]2C[C@@H](OC(=O)N3Cc4ccccc4C3)CN2C1=O
35	2.6	–	CC(C)(C)OC(=O)N[C@H]1CCCCC/C=C\[C@@H]2C[C@@]2(C(=O)NS(=O)(=O)C2CC2)NC(=O)[C@@H]2C[C@@H](OC(=O)N3CCc4cc(C(F)(F)F)ccc4C3)CN2C1=O
–	> 50000	Not Active	CC(C)(C)OC(=O)N[C@H]1CCCCC/C=C\[C@@H]2C[C@@]2(C(=O)O)NC(=O)[C@@H]2C[C@@H](O)CN2C1=O
166	4.8	–	CC(C)(C)OC(=O)N[C@H]1CCCCC/C=C\[C@@H]2C[C@@]2(C(=O)NS(=O)(=O)C(F)(F)F)NC(=O)[C@@H]2C[C@@H](OC(=O)N3Cc4ccccc4C3)CN2C1=O
77	1.8	–	CC(C)(C)OC(=O)N[C@H]1CCCCC/C=C\[C@@H]2C[C@@]2(C(=O)NS(=O)(=O)C2CC2)NC(=O)[C@@H]2C[C@@H](OC(=O)N3Cc4cccc(N5CCOCC5)c4C3)CN2C1=O
184	11	–	COc1ccc(NS(=O)(=O)NC(=O)[C@@]23C[C@H]2/C=C\CCCCC[C@H](NC(=O)OC(C)(C)C)C(=O)N2C[C@H](OC(=O)N4Cc5ccccc5C4)C[C@H]2C(=O)N3)cc1
45	0.8	–	CC(C)(C)OC(=O)N[C@H]1CCCCC/C=C\[C@@H]2C[C@@]2(C(=O)NS(=O)(=O)C2CC2)NC(=O)[C@@H]2C[C@@H](OC(=O)N3Cc4ccc(N5CCOCC5)cc4C3)CN2C1=O
58	3	–	CC(C)(C)OC(=O)N[C@H]1CCCCC/C=C\[C@@H]2C[C@@]2(C(=O)NS(=O)(=O)c2ccc(Cl)cc2)NC(=O)[C@@H]2C[C@@H](OC(=O)N3Cc4ccccc4C3)CN2C1=O
42	1.5	–	CC(C)(C)OC(=O)N[C@H]1CCCCC/C=C\[C@@H]2C[C@@]2(C(=O)NS(=O)(=O)C2CC2)NC(=O)[C@@H]2C[C@@H](OC(=O)N3Cc4ccc(N)cc4C3)CN2C1=O
48	0.6	–	O=C(CCC(F)(F)F)N[C@H]1CCCCC/C=C\[C@@H]2C[C@@]2(C(=O)NS(=O)(=O)C2CC2)NC(=O)[C@@H]2C[C@@H](OC(=O)N3Cc4ccccc4C3)CN2C1=O

EC50 (Hepatitis C virus; [2]) [nM]	IC50 [1] [nM]	EC50 (Hepatitis C virus; huh-7)	Compound
46	17	–	CN1CCN(S(=O)(=O)NC(=O)[C@@]23C[C@H]2/C=C\CCCCC[C@H](NC(=O)OC(C)(C)C)C(=O)N2C[C@H](OC(=O)N4Cc5ccccc5C4)C[C@H]2C(=O)N3)CC1
22	2.3	–	COc1ccc2c(c1)CN(C(=O)O[C@@H]1C[C@H]3C(=O)N[C@]4(C(=O)NS(=O)(=O)C5CC5)C[C@H]4/C=C\CCCCC[C@H](NC(=O)OC(C)(C)C)C(=O)N3C1)C2
11.8	2.6	–	CC(C)(C)OC(=O)N[C@H]1CCCCC/C=C\[C@@H]2C[C@@]2(C(=O)NS(=O)(=O)N2CCCC2)NC(=O)[C@@H]2C[C@@H](OC(=O)N3Cc4ccccc4C3)CN2C1=O
7.2	1.5	–	CC(C)(C)OC(=O)N[C@H]1CCC(F)(F)CC/C=C\[C@@H]2C[C@@]2(C(=O)NS(=O)(=O)C2CC2)NC(=O)[C@@H]2C[C@@H](OC(=O)N3Cc4cccc(F)c4C3)CN2C1=O
47	2.3	–	CC(C)(C)OC(=O)N[C@H]1CCCCC/C=C\[C@@H]2C[C@@]2(C(=O)NS(=O)(=O)C2CC2)NC(=O)[C@@H]2C[C@@H](NC(=O)N3Cc4ccccc4C3)CN2C1=O
10	4.1	–	COc1ccc(S(=O)(=O)NC(=O)[C@@]23C[C@H]2/C=C\CCCCC[C@H](NC(=O)OC(C)(C)C)C(=O)N2C[C@H](OC(=O)N4Cc5ccccc5C4)C[C@H]2C(=O)N3)cc1
41	2	–	CN1CCN(c2ccc3c(c2)CN(C(=O)O[C@@H]2C[C@H]4C(=O)N[C@]5(C(=O)NS(=O)(=O)C6CC6)C[C@H]5/C=C\CCCCC[C@H](NC(=O)OC(C)(C)C)C(=O)N4C2)C3)CC1
46	1.3	–	CC(C)(C)OC(=O)N[C@H]1CCCC(F)(F)CCC[C@@H]2C[C@@]2(C(=O)NS(=O)(=O)C2CC2)NC(=O)[C@@H]2C[C@@H](OC(=O)N3Cc4cccc(F)c4C3)CN2C1=O
12	0.7	–	CC(C)(C)OC(=O)N[C@H]1CCCCC/C=C\[C@@H]2C[C@@]2(C(=O)NS(=O)(=O)C2CC2)NC(=O)[C@@H]2C[C@@H](OC(=O)N3CCc4c(F)cccc4C3)CN2C1=O
516	13	–	CC(C)(C)OC(=O)N[C@H]1CCCCC/C=C\[C@@H]2C[C@@]2(C(=O)O)NC(=O)[C@@H]2C[C@@H](OC(=O)N3Cc4cccc(Cl)c4C3)CN2C1=O
76.6	1.5	–	CC(C)(C)OC(=O)N[C@H]1CCCC/C=C\[C@@H]2C[C@@]2(C(=O)NS(=O)(=O)C2CC2)NC(=O)[C@@H]2C[C@@H](OC(=O)N3Cc4cccc(F)c4C3)CN2C1=O
32	0.5	–	CC(C)(C)OC(=O)N[C@H]1CCCCC/C=C\[C@@H]2C[C@@]2(C(=O)NS(=O)(=O)c2cc(Cl)sc2Cl)NC(=O)[C@@H]2C[C@@H](OC(=O)N3Cc4ccccc4C3)CN2C1=O
24	1.8	–	CC(C)(C)OC(=O)N[C@H]1CCN(CC(F)(F)F)CC/C=C\[C@@H]2C[C@@]2(C(=O)NS(=O)(=O)C2CC2)NC(=O)[C@@H]2C[C@@H](OC(=O)N3Cc4cccc(F)c4C3)CN2C1=O
24	1	–	CC(C)(C)OC(=O)N[C@H]1CCCCC/C=C\[C@@H]2C[C@@]2(C(=O)NS(=O)(=O)C2CC2)NC(=O)[C@@H]2C[C@@H](OC(=O)N3Cc4cc(Cl)c(Cl)cc4C3)CN2C1=O
3.1	0.5	–	CC(C)(C)OC(=O)N[C@H]1CCCCC/C=C\[C@@H]2C[C@@]2(C(=O)NS(=O)(=O)C2(C)CC2)NC(=O)[C@@H]2C[C@@H](OC(=O)N3Cc4ccccc4C3)CN2C1=O
